Assay: Aerobic stability of grass silage (method of Honig), PVC silos
Set-up: species or system ryegrass
Experimental: Second cut ryegrass was harvested at PLNC. The grass was determined to have an approximate dry matter of 35%.
Inoculation: Individual strains were supplied as fresh grown overnight culture. Cultures were adjusted to a standard concentration of 5.0×10^7 CFU/mL and applied using a syringe at a rate of 2.2 mL/kg of forage. The application rate for all strains was 1.1×10^5 CFU/g forage. Propionic acid (88%) was applied at a rate of 4.4 mL/kg fresh forage.
PVC Silos: PVC silos were filled at a packing density of 0.288 kg DM/silo (100 kg DM/m^3); approximately 0.82-0.95 kg/silo. Silos were air infused for 24 hours on days 28 and 42, and opened after 50-60 days of ensiling.
Aerobic Stability: The method of Honig (Proc. Of the Eurobac. Conf., P. Lingvall and S. Lindgren (ed.) (12-16 Aug. 1986) Swed. Univ. of Agric. Sci. Grass and Forage Report No. 3-1990. Pp. 76-81. Uppsala, Sweden) was used for measuring aerobic stability (see Table 1). ROT is defined as the time, in hours, for the silage to heat 1.7° C. after exposure to air. Cumm_DD is the integral value of the area between the time ROT is attained and the end of the experiment. Aerobic dry matter loss (% dry matter) was determined relating the increase in temperature and the time to energy losses occurring in the silage.

[1] = average across replicate studies A, B, C

SMILES: CCC(=O)O [Propionic Acid, Propionic acid]
- Aerobic deterioration versus control grass silages: significantly less aerobic deterioration
- Aerobic Dry Matter Loss, Avg. [1]: 0.43 % dry matter
- ROT (time for the silage to heat 1.7° C. after exposure to air), Avg. [1]: 127 h
- Aerobic Dry Matter Loss, replicate study A (replicate A): 0.29 % dry matter
- ROT (time for the silage to heat 1.7° C. after exposure to air), replicate study A (replicate A): 137 h
- Aerobic Dry Matter Loss, replicate study B (replicate B): 0 % dry matter
- ROT (time for the silage to heat 1.7° C. after exposure to air), replicate study B (replicate B): 160 h
- Aerobic Dry Matter Loss, replicate study C (replicate C): 1.01 % dry matter
- ROT (time for the silage to heat 1.7° C. after exposure to air), replicate study C (replicate C): 86 h
- Improvement of aerobic stability over the control (versus control): 96 h

Reference: patent US20080138461A1, “Lactobacillus buchneri strain LN1297 and its use to improve aerobic stability of silage” (Pioneer Hi-Bred International, Inc., priority 2006, published 2008)
